Results reported in US20170166598A1, “HETEROARYL COMPOUNDS FOR KINASE INHIBITION” (ARIAD PHARMACEUTICALS, INC., priority 2014, published 2017).

Columns and labels:
Assay type in all cases: cell-based
[1] = target: T1, human EGFR exon 20 insertion NPG (H773_V774insNPG) (Homo sapiens, UniProt P00533, INS772GNP); assay: Ba/F3-EGFR-Exon20-NPG cell anti-proliferative assay (CellTiter 96 MTS, 72 h); conditions: Ba/F3-EGFR-Exon20-NPG cells
T1 construct: expressed in transfected cells; host or cells: Ba/F3 (murine pro-B) cells transduced with lentivirus from pLVX-IRES puro
T1 sequence (P00533 with tags, fused parts or gaps INS772GNP): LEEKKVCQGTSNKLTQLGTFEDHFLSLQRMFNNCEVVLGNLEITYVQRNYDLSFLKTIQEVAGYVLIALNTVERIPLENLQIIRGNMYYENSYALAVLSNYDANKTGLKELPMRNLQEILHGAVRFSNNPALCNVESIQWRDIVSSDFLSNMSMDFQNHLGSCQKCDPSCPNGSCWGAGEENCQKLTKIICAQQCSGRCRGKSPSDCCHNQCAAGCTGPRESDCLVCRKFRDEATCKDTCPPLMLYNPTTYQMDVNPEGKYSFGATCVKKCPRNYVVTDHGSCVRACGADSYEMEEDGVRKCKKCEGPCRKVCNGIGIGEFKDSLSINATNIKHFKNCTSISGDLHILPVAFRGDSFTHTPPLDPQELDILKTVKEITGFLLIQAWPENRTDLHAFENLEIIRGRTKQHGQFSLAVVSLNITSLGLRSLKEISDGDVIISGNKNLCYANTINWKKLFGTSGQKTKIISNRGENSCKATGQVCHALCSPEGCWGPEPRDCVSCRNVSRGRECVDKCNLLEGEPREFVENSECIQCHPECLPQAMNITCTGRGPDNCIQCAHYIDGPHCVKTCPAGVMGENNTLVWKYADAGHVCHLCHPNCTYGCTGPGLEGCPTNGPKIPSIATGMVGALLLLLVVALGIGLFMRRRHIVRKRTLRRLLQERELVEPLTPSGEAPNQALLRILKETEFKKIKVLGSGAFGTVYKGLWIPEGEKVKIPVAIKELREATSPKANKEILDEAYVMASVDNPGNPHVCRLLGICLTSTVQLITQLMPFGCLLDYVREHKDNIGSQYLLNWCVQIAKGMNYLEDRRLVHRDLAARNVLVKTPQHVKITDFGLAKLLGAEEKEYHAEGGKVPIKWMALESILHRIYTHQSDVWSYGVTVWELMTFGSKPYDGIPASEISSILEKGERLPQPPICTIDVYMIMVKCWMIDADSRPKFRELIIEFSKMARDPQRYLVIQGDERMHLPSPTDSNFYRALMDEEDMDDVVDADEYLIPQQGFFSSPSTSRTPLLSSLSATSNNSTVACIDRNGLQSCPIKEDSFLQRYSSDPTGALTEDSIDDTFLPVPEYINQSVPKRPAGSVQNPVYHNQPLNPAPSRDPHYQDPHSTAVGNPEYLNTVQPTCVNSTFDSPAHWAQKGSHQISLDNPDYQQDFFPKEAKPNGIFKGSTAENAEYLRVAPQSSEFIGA
Experimental: (§1) An expression vector, pLVX-IRES puro (Clontech) coding for human EGFR exon 20 insertions NPG (H773_V774insNPG) or ASV (V769_D770insASV), was transfected into HEK293 cells by the Trans-Lentiviral ORF Packaging System (Thermo Scientific), to produce virus encoding EGFR exon 20 insertions. Ba/F3 (DSMZ) cells maintained in RPMI 1640 medium supplemented with 10% fetal bovine serum, 200 μM L-glutamine/l 200 μg/mL penicillin/200 μg/mL streptomycin (Life Technology) and 10 ng/mL IL-3 (R&D system), were infected by EGFR Exon20 virus and subsequently selected by puromycin (Life Technology) selection and IL-3 depletion. […] The anti-proliferative activity of compounds were determined as follows: BaF3-EGFR-Exon20 cells (NPG or ASV) seeded in 96 well plates (2500 cells/well) were treated with test compound (dissolved in DMSO) at a series of concentrations (4-fold dilution, top concentration: 10,000 nM). The plates were incubated for 72 h in a 37° C. incubator with 5% CO2, and the number of viable cells in each well were measured indirectly by CellTiter 96® Aqueous One Solution Cell Proliferation Assay (Promega) This assay is a colorimetric method for determining the number of viable cells through measurement of their metabolic activity by detection of enzymatic conversion of tetrazolium salts into blue formazan derivatives. Reagent (20 μL) was added into each well, and the plates were returned to the incubator for 2 h. The absorbance in each well was then measured at 490 nm using an Envision plate reader (Perkin Elmer).

[2] = target: T2, human EGFR E746-A750 deletion and T790M Mutation (Homo sapiens, UniProt P00533, DEL746-750/T790M); assay: Ba/F3-EGFR-Del/T790M cell anti-proliferative assay (CellTiter 96 MTS, 72 h); conditions: Ba/F3-EGFR-Del/T790M cells
T2 construct: expressed in transfected cells; host or cells: Ba/F3 (murine pro-B) cells transduced with lentivirus from pLVX-IRES puro
T2 sequence (P00533 with tags, fused parts or gaps DEL746-750/T790M): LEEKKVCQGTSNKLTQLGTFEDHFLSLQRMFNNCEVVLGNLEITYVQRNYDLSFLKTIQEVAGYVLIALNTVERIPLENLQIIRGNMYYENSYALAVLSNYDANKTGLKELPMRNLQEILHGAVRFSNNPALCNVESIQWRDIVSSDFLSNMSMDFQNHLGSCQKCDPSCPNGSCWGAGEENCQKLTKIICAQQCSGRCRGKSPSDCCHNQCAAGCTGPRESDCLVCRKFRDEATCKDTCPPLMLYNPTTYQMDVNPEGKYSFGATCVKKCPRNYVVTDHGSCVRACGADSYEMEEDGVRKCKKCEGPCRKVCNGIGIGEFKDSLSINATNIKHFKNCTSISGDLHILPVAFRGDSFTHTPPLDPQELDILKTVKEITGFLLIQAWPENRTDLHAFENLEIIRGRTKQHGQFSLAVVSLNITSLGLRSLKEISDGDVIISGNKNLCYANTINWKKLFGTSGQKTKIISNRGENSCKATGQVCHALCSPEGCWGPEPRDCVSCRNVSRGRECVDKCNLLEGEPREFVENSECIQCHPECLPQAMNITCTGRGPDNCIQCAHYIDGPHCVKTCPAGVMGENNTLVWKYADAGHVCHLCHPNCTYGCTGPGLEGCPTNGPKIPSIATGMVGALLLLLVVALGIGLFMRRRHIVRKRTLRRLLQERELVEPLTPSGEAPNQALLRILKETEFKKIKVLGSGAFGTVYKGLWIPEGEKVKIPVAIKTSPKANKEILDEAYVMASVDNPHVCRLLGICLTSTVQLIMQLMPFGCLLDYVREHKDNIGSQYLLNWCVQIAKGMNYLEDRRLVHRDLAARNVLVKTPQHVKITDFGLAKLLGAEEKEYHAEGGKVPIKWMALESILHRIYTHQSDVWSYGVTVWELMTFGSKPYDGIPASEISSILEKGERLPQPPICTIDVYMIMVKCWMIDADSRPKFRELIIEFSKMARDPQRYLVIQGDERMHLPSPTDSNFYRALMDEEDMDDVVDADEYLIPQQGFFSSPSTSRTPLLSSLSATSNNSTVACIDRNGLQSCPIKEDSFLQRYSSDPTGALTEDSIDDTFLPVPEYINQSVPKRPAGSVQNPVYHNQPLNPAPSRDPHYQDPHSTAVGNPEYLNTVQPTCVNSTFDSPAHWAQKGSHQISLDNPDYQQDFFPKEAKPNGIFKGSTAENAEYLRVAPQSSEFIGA
Experimental: An expression vector, pLVX-IRES puro (Clontech) coding for human EGFR E746-A750 deletion and T790M Mutation, was transfected into HEK293 cells by the Trans-Lentiviral ORF Packaging System (Thermo Scientific), to produce virus encoding EGFR exon 19 deletion and T790M mutations. Ba/F3 (DSMZ) cells maintained in RPMI 1640 medium supplemented with 10% fetal bovine serum, 200 μM L-glutamine/200 μg/mL penicillin/200 μg/mL streptomycin (Life Technology) and 10 ng/mL IL-3 (R&D system), were infected by EGFR E746-A750 deletion and T790M Mutation virus and subsequently selected by puromycin (Life Technology) selection and IL-3 depletion. […] The anti-proliferative activity of compounds was determined as follows: BaF3-EGFR-Del/T790M cells seeded in 96 well plates (2500 cells/well) were treated with test compound (dissolved in DMSO) at a series of concentrations (4-fold dilution, top concentration: 10,000 nM). The plates were incubated for 72 h in a 37° C. incubator with 5% CO2, and the number of viable cells in each well were measured indirectly by CellTiter 96® Aqueous One Solution Cell Proliferation Assay (Promega; this assay is a colorimetric method for determining the number of viable cells through measurement of their metabolic activity by detection of enzymatic conversion of tetrazolium salts into blue formazan derivatives). Reagent (20 μL) was added into each well, and the plates were returned to the incubator for 2 h. The absorbance in each well was then measured at 490 nm using an Envision plate reader (Perkin Elmer).

[3] = target: T3, human EGFR exon 20 insertion ASV (V769_D770insASV) (Homo sapiens, UniProt P00533, INS769ASV); assay: Ba/F3-EGFR-Exon20-ASV cell anti-proliferative assay (CellTiter 96 MTS, 72 h); conditions: Ba/F3-EGFR-Exon20-ASV cells
T3 construct: expressed in transfected cells; host or cells: Ba/F3 (murine pro-B) cells transduced with lentivirus from pLVX-IRES puro
T3 sequence (P00533 with tags, fused parts or gaps INS769ASV): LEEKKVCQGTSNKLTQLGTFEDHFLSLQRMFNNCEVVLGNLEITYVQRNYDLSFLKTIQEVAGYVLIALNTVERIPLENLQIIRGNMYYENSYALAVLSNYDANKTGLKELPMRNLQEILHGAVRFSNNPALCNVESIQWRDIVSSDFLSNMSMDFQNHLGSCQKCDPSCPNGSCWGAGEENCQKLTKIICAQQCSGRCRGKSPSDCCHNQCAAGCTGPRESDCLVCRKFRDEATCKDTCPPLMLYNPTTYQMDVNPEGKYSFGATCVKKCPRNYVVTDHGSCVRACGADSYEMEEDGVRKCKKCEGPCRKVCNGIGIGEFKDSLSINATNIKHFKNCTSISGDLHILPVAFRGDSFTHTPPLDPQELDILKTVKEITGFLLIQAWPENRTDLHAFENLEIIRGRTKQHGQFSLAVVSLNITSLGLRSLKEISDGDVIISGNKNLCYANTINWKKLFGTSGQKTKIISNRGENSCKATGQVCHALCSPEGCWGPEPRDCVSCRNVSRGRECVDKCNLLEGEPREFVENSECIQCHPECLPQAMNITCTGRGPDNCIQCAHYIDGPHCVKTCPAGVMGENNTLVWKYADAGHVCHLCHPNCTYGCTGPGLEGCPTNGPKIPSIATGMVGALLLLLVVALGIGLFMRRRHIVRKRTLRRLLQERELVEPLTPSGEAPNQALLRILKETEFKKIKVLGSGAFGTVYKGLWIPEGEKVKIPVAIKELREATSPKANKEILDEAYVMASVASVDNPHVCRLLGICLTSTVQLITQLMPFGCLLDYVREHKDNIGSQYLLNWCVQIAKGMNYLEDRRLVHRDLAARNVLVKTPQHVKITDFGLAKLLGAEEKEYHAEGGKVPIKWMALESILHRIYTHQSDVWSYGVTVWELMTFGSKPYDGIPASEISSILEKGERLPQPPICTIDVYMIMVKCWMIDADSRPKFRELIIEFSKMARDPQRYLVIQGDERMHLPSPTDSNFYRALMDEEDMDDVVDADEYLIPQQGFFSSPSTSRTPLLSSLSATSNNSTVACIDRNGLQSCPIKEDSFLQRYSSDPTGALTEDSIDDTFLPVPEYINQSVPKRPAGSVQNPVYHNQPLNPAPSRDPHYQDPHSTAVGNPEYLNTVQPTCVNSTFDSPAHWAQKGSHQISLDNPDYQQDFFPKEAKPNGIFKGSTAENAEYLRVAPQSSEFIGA
Experimental: as §1

[4] = target: T4, Her2 exon 20 YVMA insertion (A775_G776ins YVMA) (Homo sapiens, UniProt P04626, INS775YVMA); assay: Ba/F3-Her2 Exon20 YVMA cell anti-proliferative assay (CellTiter 96 MTS, 72 h); conditions: Ba/F3-Her2 Exon20 YVMA cells
T4 construct: expressed in transfected cells; host or cells: Ba/F3 (murine pro-B) cells transduced with lentivirus from pLVX-IRES puro
T4 sequence (P04626 with tags, fused parts or gaps INS775YVMA): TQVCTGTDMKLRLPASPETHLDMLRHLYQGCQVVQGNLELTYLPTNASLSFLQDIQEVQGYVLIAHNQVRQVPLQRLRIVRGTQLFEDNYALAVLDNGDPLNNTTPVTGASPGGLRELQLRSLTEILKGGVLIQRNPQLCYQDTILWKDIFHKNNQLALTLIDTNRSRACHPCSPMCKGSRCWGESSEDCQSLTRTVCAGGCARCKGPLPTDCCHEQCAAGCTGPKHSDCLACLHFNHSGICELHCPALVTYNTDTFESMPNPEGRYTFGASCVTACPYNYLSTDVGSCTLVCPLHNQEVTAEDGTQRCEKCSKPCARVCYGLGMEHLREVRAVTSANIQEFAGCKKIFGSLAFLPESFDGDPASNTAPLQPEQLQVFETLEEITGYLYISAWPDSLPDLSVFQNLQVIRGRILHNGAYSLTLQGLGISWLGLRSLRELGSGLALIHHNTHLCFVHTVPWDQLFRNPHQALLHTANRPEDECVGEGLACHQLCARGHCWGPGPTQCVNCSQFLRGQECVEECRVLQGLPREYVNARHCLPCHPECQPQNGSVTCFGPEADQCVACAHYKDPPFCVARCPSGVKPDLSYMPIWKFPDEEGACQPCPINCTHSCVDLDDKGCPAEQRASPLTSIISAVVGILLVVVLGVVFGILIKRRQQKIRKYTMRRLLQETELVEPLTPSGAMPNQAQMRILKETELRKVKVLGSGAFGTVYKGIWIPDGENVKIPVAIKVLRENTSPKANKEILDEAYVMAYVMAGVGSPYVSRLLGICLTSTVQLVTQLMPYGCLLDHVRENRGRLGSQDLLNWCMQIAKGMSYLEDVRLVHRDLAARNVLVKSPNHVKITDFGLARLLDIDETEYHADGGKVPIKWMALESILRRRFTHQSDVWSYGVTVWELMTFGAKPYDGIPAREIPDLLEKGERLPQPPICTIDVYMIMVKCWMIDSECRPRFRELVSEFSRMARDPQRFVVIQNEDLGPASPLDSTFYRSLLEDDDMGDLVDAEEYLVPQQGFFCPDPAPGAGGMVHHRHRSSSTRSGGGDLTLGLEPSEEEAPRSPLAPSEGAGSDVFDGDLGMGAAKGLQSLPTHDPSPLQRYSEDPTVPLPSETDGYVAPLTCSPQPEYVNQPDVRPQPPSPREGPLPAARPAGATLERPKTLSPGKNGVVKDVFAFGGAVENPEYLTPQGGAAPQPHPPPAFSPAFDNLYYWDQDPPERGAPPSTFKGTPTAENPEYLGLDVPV
Description: A compound's ability in selectively inhibiting Her2 exon 20 YVMA insertion mutations can be assessed using Ba/F3 cells, a murine pro-B cell line, which have been transduced with Her2 Exon20 YVMA insertions. An expression vector, pLVX-IRES puro (Clontech) coding for […] (A775_G776ins YVMA), was transfected into HEK293 cells by the Trans-Lentiviral ORF Packaging System (Thermo Scientific), to produce virus encoding EGFR exon 20 insertions. Ba/F3 (DSMZ) cells maintained in RPMI 1640 medium supplemented with 10% fetal bovine serum, 200 μM L-glutamine/200 μg/mL penicillin/200 μg/mL streptomycin (Life Technology) and 10 ng/mL IL-3 (R&D system), were infected by EGFR Exon20 virus and subsequently selected by puromycin (Life Technology) selection and IL-3 depletion. Ba/F3 cells expressing Her2 Exon20 YVMA insertions (named Ba/F3-Her2 Exon20 YVMA) can proliferate in the absence of IL-3. The anti-proliferative activity of compounds was determined as follows: BaF3-Her2 Exon20 YVMA cells seeded in 96 well plates (2500 cells/well) were treated with test compound (dissolved in DMSO) at a series of concentrations (4-fold dilution, top concentration: 10,000 nM). The plates were incubated for 72 h in a 37° C. incubator with 5% CO2, and the number of viable cells in each well were measured indirectly by CellTiter 96@ Aqueous One Solution Cell Proliferation Assay (Promega; this assay is a colorimetric method for determining the number of viable cells through measurement of their metabolic activity by detection of enzymatic conversion of tetrazolium salts into blue formazan derivatives). Reagent (20 μL) was added into each well, and the plates were returned to the incubator for 2 h. The absorbance in each well was then measured at 490 nm using an Envision plate reader (Perkin Elmer).

IC50 [1] [nM] | IC50 [3] [nM] | IC50 [4] [nM] | Compound | EGFR exon 19 deletion and exon 20 T790M mutation IC50 [2]
< 100 | < 100 | < 100 | C#Cc1cnc(Nc2cc(NC(=O)C=C)c(N(C)CCN(C)C)cc2OC)nc1-c1cn2c3c(cccc13)CCC2 [Example 31, N-(5-((4-(5,6-dihydro-4H-pyrrolo[3,2,1-ij]quinolin-1-yl)-5-ethynylpyrimidin-2-yl)amino)-2-((2-(dimethylamino)ethyl)(methyl)amino)-4-methoxyphenyl)acrylamide] | A (IC50 value for the indicated mutant below about 100 nM)
< 100 | < 100 | < 100 | C=CC(=O)Nc1cc(Nc2ncc(-c3cnn(CC)c3)c(-c3cn4c5c(cccc35)CCC4)n2)c(OC)cc1N(C)CCN(C)C [Example 99] | A (IC50 value for the indicated mutant below about 100 nM)
< 100 | < 100 | 100 to 500 | C=CC(=O)Nc1cc(Nc2ncc(Cl)c(-c3cn4c5c(cccc35)CCC4)n2)c(CC)cc1N(C)CCN(C)C [Example 18, N-(5-((5-chloro-4-(5,6-dihydro-4H-pyrrolo[3,2,1-ij]quinolin-1-yl)pyrimidin-2-yl)amino)-2-((2-(dimethylamino)ethyl)(methyl)amino)-4-ethylphenyl)acrylamide] | A (IC50 value for the indicated mutant below about 100 nM)
< 100 | < 100 | 100 to 500 | C=CC(=O)Nc1cc(Nc2ncc(N(C)CCO)c(-c3cn4c5c(cccc35)CCC4)n2)c(OC)cc1N(C)CCN(C)C [Example 60, N-(5-((4-(5,6-dihydro-4H-pyrrolo[3,2,1-ij]quinolin-1-yl)-5-((2-hydroxyethyl)(methyl)amino)pyrimidin-2-yl)amino)-2-((2-(dimethylamino)ethyl)-(methyl)amino)-4-methoxyphenyl)acrylamide] | A (IC50 value for the indicated mutant below about 100 nM)
< 100 | < 100 | 100 to 500 | C=CC(=O)Nc1cc(Nc2ncc(Cl)c(-c3nn4c5c(cccc35)OCC4)n2)c(OC)cc1N(C)CCN(C)C [Example 57, N-(5-((5-chloro-4-(2,3-dihydro-[1,4]oxazino[2,3,4-hi]indazol-6-yl)pyrimidin-2-yl)amino)-2-((2-(dimethylamino)ethyl)(methyl)amino)-4-methoxyphenyl)acrylamide] | A (IC50 value for the indicated mutant below about 100 nM)
< 100 | < 100 | < 100 | C=CC(=O)Nc1cc(Nc2ncc(OCC#N)c(-c3cn4c5c(cccc35)CCC4)n2)c(OC)cc1N(C)CCN(C)C [Example 50, N-(5-((5-(cyanomethoxy)-4-(5,6-dihydro-4H-pyrrolo[3,2,1-ij]quinolin-1-yl)pyrimidin-2-yl)amino)-2-((2-(dimethylamino)ethyl)(methyl)amino)-4-methoxyphenyl)acrylamide] | A (IC50 value for the indicated mutant below about 100 nM)
< 100 | < 100 | < 100 | C=CC(=O)Nc1cc(Nc2ncc(/C=C\C#N)c(-c3cn4c5c(cccc35)CCC4)n2)c(OC)cc1N(C)CCN(C)C [Example 43, (Z)-N-(5-((5-(2-cyanovinyl)-4-(5,6-dihydro-4H-pyrrolo[3,2,1-ij]quinolin-1-yl)pyrimidin-2-yl)amino)-2-((2-(dimethylamino)ethyl)(methyl)amino)-4-methoxyphenyl)acrylamide] | A (IC50 value for the indicated mutant below about 100 nM)
< 100 | < 100 | < 100 | C=CC(=O)Nc1cc(Nc2ncc(CCCOC)c(-c3cn4c5c(cccc35)CCC4)n2)c(OC)cc1N(C)CCN(C)C [Example 33, N-(5-((4-(5,6-dihydro-4H-pyrrolo[3,2,1-ij]quinolin-1-yl)-5-(3-methoxypropyl)pyrimidin-2-yl)amino)-2-((2-(dimethylamino)ethyl)(methyl)amino)-4-methoxyphenyl)acrylamide] | A (IC50 value for the indicated mutant below about 100 nM)
